Patent US20190255073A1, “ESTERS OF 3-POLYAMINE DERIVATIVES OF BILE ACIDS FOR THE TREATMENT OF INFECTIONS” (VIRBAC, priority 2016, published 2019)
≈ marks a conversion by molar mass, not a printed value. Read-outs that look alike come from different tables or passages of the source.

Key:
E. coli (1956) = experiment: MIC determination by microplate dilution, E. coli animal strain; type: cell-based, Escherichia coli; conditions: Gram-negative, Mueller-Hinton medium, 24 h, 37° C.; for MIC: Escherichia coli
In short: (§1)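 Two-fold serial broth microdilution in Mueller-Hinton medium, inoculum adjusted to OD 0.01 per well from a 24 h, 37 °C preculture. Compounds were dissolved in DMSO/methanol (50/50) at 5 mg/mL stock. Plates were incubated 24 h at 37 °C under humid atmosphere, then read at 620 nm to derive the MIC; duplicates.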

S. aureus (340) = experiment: MIC determination by microplate dilution, S. aureus animal strain; type: cell-based, Staphylococcus aureus; conditions: Gram-positive, Mueller-Hinton medium, 24 h, 37° C.; for MIC: Staphylococcus aureus
In short: as §1

C. albicans = experiment: Antifungal activity, cascade microdilution, C. albicans; type: cell-based, Candida albicans; conditions: 24 h; for IC50: Candida albicans, read-out: IC50 (μg/mL) C. albicans
E. faecalis ATCC29212 = experiment: MIC determination by microplate dilution, E. faecalis human strain; type: cell-based, Enterococcus faecalis; conditions: Mueller-Hinton medium, 24 h, 37° C.; for MIC: Enterococcus faecalis, ATCC29212, Gram-positive
In short: as §1

S. aureus ATCC25923 = experiment: MIC determination by microplate dilution, S. aureus human strain; type: cell-based, Staphylococcus aureus; conditions: Mueller-Hinton medium, 24 h, 37° C.; for MIC: Staphylococcus aureus, ATCC25923, Gram-positive
In short: as §1

E. coli ATCC28922 = experiment: MIC determination by microplate dilution, E. coli human strain; type: cell-based, Escherichia coli; conditions: Mueller-Hinton medium, 24 h, 37° C.; for MIC: Escherichia coli, ATCC28922, Gram-negative
In short: as §1

S. intermedius (1051997) = experiment: MIC determination by microplate dilution, S. intermedius animal strain; type: cell-based, Staphylococcus intermedius; conditions: Gram-positive, Mueller-Hinton medium, 24 h, 37° C.; for MIC: Staphylococcus intermedius
In short: as §1

P. aeruginosa ATCC27853 = experiment: MIC determination by microplate dilution, P. aeruginosa human strain; type: cell-based, Pseudomonas aeruginosa; conditions: Mueller-Hinton medium, 24 h, 37° C.; for MIC: Pseudomonas aeruginosa, ATCC27853, Gram-negative
In short: as §1

P. aeruginosa (1051575) [1] = experiment: MIC determination by microplate dilution, P. aeruginosa animal strain; type: cell-based, Pseudomonas aeruginosa; conditions: Gram-negative, Mueller-Hinton medium, 24 h, 37° C.; for MIC: Pseudomonas aeruginosa
In short: as §1

P. aeruginosa (1051575) [2] = experiment: Potentiation of the doxycycline activity at 2 μg/mL; type: cell-based, Pseudomonas aeruginosa; conditions: in combination with doxycycline 2 μg/mL; 24 h, 37°
CHO-K1 cells = experiment: WST1 cytotoxicity test on CHO-K1 cells; type: cell-based, Chinese hamster; conditions: for IC50: Cricetulus griseus
In short: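 CHO-K1 cells seeded 24 h, then exposed to increasing compound concentrations in duplicate for 24 h at 37 °C, 5% CO2. Viability by WST-1 reduction (20 min, 37 °C), absorbance at 450 nm. IC50 = concentration reducing viability by 50%, from nonlinear regression of dose-response.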

[3] = CHO-K1, read-out: IC50 (μg/mL) CHO
[4] = compounds as hydrochloride in water, MH medium
[5] = CHO-K1, 24 h, read-out: IC50 (μg/mL) CHO

Compound | MIC (E. coli (1956)) [µg/mL] | MIC (S. aureus (340)) [µg/mL] | IC50 (C. albicans) [µg/mL] | MIC (E. faecalis ATCC29212) [µg/mL] | MIC (S. aureus ATCC25923) [µg/mL] | MIC (E. coli ATCC28922) [µg/mL] | MIC (S. intermedius (1051997)) [µg/mL] | MIC (P. aeruginosa ATCC27853) [µg/mL] | MIC (P. aeruginosa (1051575) [1]) [µg/mL] | MIC - P. aeruginosa (1051575): content of compound of formula (I) to restore the doxycycline activity (at 2 μg/mL) (P. aeruginosa (1051575) [2]) [µg/mL] | IC50 (CHO-K1 cells; [3]) [µg/mL] | IC50 (CHO-K1 cells; [5]) [µg/mL] | also measured
CC(C)OC(=O)CC[C@@H](C)[C@H]1CCC2C3CCC4C[C@@H](NCCNCCNCCNCCNCCN)CC[C@]4(C)C3C[C@H](O)[C@@]21C (stereo partly drawn) [(27), isopropyl 3β-(pentaethylenehexamine)deoxycholate] | 65 (≈ 100 µM) | > 130 | 4 (≈ 6.16 µM) | 32 (≈ 49.3 µM) | 16 (≈ 24.7 µM) | 32 (≈ 49.3 µM) | 16 (≈ 24.7 µM) | 65 (≈ 100 µM) | 65 (≈ 100 µM) | 8 | 110 (≈ 169 µM) | – | –
methyl 3β-(bis(3-aminopropyl)methylamine)ursodeoxycholate [(53)] | – | – | – | – | – | – | – | – | – | 7 | – | – | MIC E. coli Animal (1956) (E. coli (1956)): 55 µg/mL; MIC S. aureus Animal (340) (S. aureus (340)): 27 µg/mL; IC50 (μg/mL) C. albicans (C. albicans; [4]): 3 µg/mL; MIC E. faecalis Human ATCC29212 (E. faecalis ATCC29212; Gram-positive): 55 µg/mL; MIC S. aureus Human ATCC25923 (S. aureus ATCC25923; Gram-positive): 27 µg/mL; MIC E. coli Human ATCC28922 (E. coli ATCC28922; Gram-negative): 55 µg/mL; MIC S. intermedius Animal (1051997) (S. intermedius (1051997)): 7 µg/mL; MIC P. aeruginosa Human ATCC27853 (P. aeruginosa ATCC27853; Gram-negative): 55 µg/mL; MIC P. aeruginosa Animal (1051575) (P. aeruginosa (1051575) [1]): 55 µg/mL; IC50 (μg/mL) CHO (CHO-K1 cells; CHO (Example 7)): 50 µg/mL; IC50 (μg/mL) CHO (CHO-K1 cells; Table III, WST1, CHO-K1 cells, 24 h, concentration reducing cell viability by 50%): 50 µg/mL
CC(C)OC(=O)CC[C@@H](C)[C@H]1CCC2C3C(C[C@H](O)[C@@]21C)[C@@]1(C)CC[C@H](NCCNCCNCCNCCNCCN)CC1C[C@H]3O (stereo partly drawn) [(21), isopropyl 3β-(pentaethylenehexamine)cholate] | 66 (≈ 99.2 µM) | 33 (≈ 49.6 µM) | – | 33 (≈ 49.6 µM) | 33 (≈ 49.6 µM) | 33 (≈ 49.6 µM) | 16 (≈ 24.1 µM) | 66 (≈ 99.2 µM) | 66 (≈ 99.2 µM) | – | – | – | IC50 (C. albicans; [4]): 66 µg/mL (≈ 99.2 µM); IC50 (CHO-K1 cells; CHO-K1, CHO (Example 7), read-out: IC50 (μg/mL) CHO): 105 µg/mL (≈ 158 µM)
CC(C)OC(=O)CC[C@@H](C)[C@H]1CCC2C3CCC4C[C@@H](NCCCNCCCN)CC[C@]4(C)C3CC[C@@]21C (stereo partly drawn) [(16), isopropyl 3β-norspermidinolithocholate] | 7 (≈ 13.2 µM) | 3.5 (≈ 6.58 µM) | 2 (≈ 3.76 µM) | 3.5 (≈ 6.58 µM) | 3.5 (≈ 6.58 µM) | 14 (≈ 26.3 µM) | 7 (≈ 13.2 µM) | 7 (≈ 13.2 µM) | 3.5 (≈ 6.58 µM) | 3 | 13 (≈ 24.4 µM) | 13 (≈ 24.4 µM) | –
COC(=O)CC[C@@H](C)[C@H]1CCC2C3CCC4C[C@@H](NCCCN(CCCN)CCCN)CC[C@]4(C)C3C[C@H](O)[C@@]21C (stereo partly drawn) [(32), methyl 3β-(tris(3-aminopropyl)amine)deoxycholate] | 30 (≈ 52 µM) | 7 (≈ 12.1 µM) | 2 (≈ 3.47 µM) | 14 (≈ 24.3 µM) | 4 (≈ 6.93 µM) | 7 (≈ 12.1 µM) | 7 (≈ 12.1 µM) | 14 (≈ 24.3 µM) | 7 (≈ 12.1 µM) | 4 | 30 (≈ 52 µM) | 30 (≈ 52 µM) | –
COC(=O)CC[C@@H](C)[C@H]1CCC2C3CCC4C[C@@H](NCCCN(C)CCCN)CC[C@]4(C)C3C[C@H](O)[C@@]21C (stereo partly drawn) [(31), methyl 3β-(bis(3-aminopropyl)methylamine)deoxycholate] | 13 (≈ 24.4 µM) | 7 (≈ 13.1 µM) | 2 (≈ 3.75 µM) | 13 (≈ 24.4 µM) | 7 (≈ 13.1 µM) | 26 (≈ 48.7 µM) | 3 (≈ 5.62 µM) | 26 (≈ 48.7 µM) | 13 (≈ 24.4 µM) | 3 | 55 (≈ 103 µM) | 55 (≈ 103 µM) | –
